Experimental data as given in patent US11285226B2, “Aryl ethene derivative and pharmaceutical composition containing same as active ingredient” (priority 2016, dated 2022).

Assays:
ERRγ = type: cell-based; conditions: for Functional Assay at 10 μM (% of control), Cpds: AD293, 24 hours; for Functional Assay, Cpds/Ref 5182: activity relative to reference compound GSK5182
Method: AD293 was cultured in a 24-well plate for 24 hours, using a DMEM High glucose culture medium (Hyclone, USA) to which 0.5% FBS was added at a concentration of 9×10^4/well. The culture medium was replaced with a DMEM High glucose culture medium to which 10% FBS was added, treatment was performed with a mixture of a TransIT-LT1 transfection reagent (Minis, USA) and pCMX-Gal4-ERRγ, pFR-luciferase reporter plasmid, pCMV-β-gal, and culturing was performed for 24 hours. Thereafter, a luciferase activity assay and a β-gal assay were performed, respectively, with a lysate obtained after treatment with the arylethene derivative of the present invention for 24 hours. All results were derived from three or more independent repetitive experiments.

[1] = type: in vitro ADME, human; conditions: 1 μM, 30 minutes, 37° C.
Method: 2) Microsomal Stability Evaluation
Four liver microsomes (Human, Dog, Rat, Mouse 0.5 mg/ml) with a 0.1 M phosphate buffer solution (pH 7.4), and the arylethene derivative of the present invention were added to a concentration of 1 μM, culturing was performed at 37° C. for 5 minutes in advance, a NADPH regeneration system solution was added thereto, and culturing was performed at 37° C. for 30 minutes. Thereafter, in order to complete the reaction, an acetonitrile solution containing an internal standard material (chlorpropamide) was added thereto, centrifugation (14,000 rpm, 4° C.) was performed for 5 minutes, and a supernatant was injected into a LC-MS/MS system to analyze the substrate drug, thereby evaluating metabolism stability to the arylethene derivative of the present invention.

CYP1A2 = CYP1A2 (Homo sapiens (Human), UniProt P05177); assay: Cytochrome P450 activity inhibition, CYP1A2; type: in vitro ADME; conditions: 10 μM, human liver microsomes
Excerpt: (§1) 1) Cytochrome P450 (CYP450) Activity Inhibition Evaluation

CYP2C9 = CYP2C9 (Homo sapiens (Human), UniProt P11712); assay: Cytochrome P450 activity inhibition, CYP2C9; type: in vitro ADME; conditions: 10 μM, human liver microsomes
Excerpt: as §1

CYP2C19 = CYP2C19 (Homo sapiens (Human), UniProt P33261); assay: Cytochrome P450 activity inhibition, CYP2C19; type: in vitro ADME; conditions: 10 μM, human liver microsomes
Excerpt: as §1

CYP2D6 = CYP2D6 (Homo sapiens (Human), UniProt P10635); assay: Cytochrome P450 activity inhibition, CYP2D6; type: in vitro ADME; conditions: 10 μM, human liver microsomes
Excerpt: as §1

CYP3A4 = CYP3A4 (Homo sapiens (Human), UniProt P08684); assay: Cytochrome P450 activity inhibition, CYP3A4; type: in vitro ADME; conditions: 10 μM, human liver microsomes
Method: Thereafter, in order to complete the reaction, an acetonitrile solution containing an internal standard material (Terfenadine) was added thereto, centrifugation (14,000 rpm, 4° C.) was performed for 5 minutes, and a supernatant was injected into a LC-MS/MS system to analyze the metabolites of the substrate drug, thereby evaluating drug metabolism enzyme inhibition by the arylethene derivative of the present invention.

[2] = type: in vivo; conditions: rat, IV 1 mg/kg
Method: An oral administration group fasts the day before.
Blood of each animal is collected at 0 hour.
Into a tail vein of an intravenous administration group (IV), a drug is injected at a dose of 1 mg/kg (syringe).
To an oral administration group (PO), a drug is orally administered at a dose of 10 mg/kg (oral zondec)
After administration, blood of the intravenous administration group was collected through a jugular vein 8 times at 0.08, 0.25, 0.5, 1, 2, 4, 6, and 8 hours. One collected blood amount is 400 to 500 ul.
After administration, blood of the oral administration group was collected through a jugular vein 6 times at 0.25, 0.5, 1, 4, 6 and 8 hours. One collected blood amount is 400 to 500 ul.
Supernatant plasma is collected by a centrifuge.
The supernatant plasma was injected into a LC-MS/MS system and the drug is analyzed.

Chain of CYP3A4 (P08684 whole entry): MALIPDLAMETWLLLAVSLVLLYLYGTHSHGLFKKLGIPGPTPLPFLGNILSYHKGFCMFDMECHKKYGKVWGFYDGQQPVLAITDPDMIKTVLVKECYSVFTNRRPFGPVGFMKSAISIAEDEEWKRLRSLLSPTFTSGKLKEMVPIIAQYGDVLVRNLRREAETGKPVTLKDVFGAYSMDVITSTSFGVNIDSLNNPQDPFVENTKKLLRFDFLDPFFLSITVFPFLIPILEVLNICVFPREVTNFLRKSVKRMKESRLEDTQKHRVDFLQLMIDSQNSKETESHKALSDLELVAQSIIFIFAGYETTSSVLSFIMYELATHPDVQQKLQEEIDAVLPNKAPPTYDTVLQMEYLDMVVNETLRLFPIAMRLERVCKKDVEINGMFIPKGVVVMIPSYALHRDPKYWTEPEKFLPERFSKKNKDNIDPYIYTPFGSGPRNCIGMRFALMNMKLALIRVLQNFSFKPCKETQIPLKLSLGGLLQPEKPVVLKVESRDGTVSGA
Chain of CYP1A2 (P05177 whole entry): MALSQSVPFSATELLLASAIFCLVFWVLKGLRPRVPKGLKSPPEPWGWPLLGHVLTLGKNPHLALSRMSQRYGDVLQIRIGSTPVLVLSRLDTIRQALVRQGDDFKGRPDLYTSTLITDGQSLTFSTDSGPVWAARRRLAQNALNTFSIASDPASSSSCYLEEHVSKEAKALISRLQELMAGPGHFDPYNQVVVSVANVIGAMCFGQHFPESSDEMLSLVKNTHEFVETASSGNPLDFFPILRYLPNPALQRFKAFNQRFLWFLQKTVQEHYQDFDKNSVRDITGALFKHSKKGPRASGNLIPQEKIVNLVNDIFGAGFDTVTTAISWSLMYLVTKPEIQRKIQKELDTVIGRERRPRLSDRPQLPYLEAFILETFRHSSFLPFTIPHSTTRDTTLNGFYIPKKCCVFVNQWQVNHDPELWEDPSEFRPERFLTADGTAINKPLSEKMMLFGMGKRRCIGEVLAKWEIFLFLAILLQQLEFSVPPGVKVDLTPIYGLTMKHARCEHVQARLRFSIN
Chain of CYP2D6 (P10635 whole entry): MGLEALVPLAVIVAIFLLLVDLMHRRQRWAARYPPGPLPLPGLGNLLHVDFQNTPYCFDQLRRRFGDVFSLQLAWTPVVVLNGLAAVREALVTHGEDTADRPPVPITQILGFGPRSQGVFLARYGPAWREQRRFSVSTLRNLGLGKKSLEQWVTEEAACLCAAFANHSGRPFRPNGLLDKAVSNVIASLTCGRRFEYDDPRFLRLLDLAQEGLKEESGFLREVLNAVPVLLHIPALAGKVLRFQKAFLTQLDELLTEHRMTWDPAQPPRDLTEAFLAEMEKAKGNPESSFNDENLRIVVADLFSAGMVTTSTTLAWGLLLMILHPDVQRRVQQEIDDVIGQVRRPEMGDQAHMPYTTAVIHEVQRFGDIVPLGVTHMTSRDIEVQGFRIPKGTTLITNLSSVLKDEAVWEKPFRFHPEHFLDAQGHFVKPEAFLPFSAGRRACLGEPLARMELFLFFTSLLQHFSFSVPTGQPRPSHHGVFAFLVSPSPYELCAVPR
Chain of CYP2C19 (P33261 whole entry): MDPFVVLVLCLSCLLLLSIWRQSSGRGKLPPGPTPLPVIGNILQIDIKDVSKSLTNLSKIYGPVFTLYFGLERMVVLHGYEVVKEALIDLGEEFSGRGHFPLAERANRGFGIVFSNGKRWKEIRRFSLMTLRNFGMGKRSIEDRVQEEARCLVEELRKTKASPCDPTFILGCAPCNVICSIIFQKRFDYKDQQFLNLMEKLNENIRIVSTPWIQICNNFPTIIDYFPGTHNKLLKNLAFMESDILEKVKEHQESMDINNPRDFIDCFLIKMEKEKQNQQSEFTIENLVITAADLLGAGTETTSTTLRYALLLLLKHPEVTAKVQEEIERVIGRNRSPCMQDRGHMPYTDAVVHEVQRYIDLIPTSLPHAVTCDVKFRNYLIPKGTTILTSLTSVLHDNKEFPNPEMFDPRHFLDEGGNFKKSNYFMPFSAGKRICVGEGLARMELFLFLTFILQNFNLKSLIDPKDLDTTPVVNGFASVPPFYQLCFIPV
Chain of CYP2C9 (P11712 whole entry): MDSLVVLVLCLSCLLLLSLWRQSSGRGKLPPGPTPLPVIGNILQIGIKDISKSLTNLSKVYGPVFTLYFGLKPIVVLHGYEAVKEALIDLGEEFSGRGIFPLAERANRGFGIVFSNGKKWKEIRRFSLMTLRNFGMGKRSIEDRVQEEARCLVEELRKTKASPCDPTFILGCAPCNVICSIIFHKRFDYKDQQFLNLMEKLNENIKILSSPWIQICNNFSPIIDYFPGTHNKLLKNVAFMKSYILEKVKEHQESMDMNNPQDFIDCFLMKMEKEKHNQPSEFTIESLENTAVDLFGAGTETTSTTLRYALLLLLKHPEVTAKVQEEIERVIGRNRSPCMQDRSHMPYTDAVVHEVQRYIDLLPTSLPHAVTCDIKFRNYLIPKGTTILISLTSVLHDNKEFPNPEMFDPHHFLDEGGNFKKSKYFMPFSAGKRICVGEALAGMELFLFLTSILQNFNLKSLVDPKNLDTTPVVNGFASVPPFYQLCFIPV

C[Si](C)(CN1CCCC1)c1ccc(/C(=C(/CCCO)c2ccccc2)c2ccc(O)cc2)cc1 [Compound 42c]
Functional Assay at 10 μM (% of control), Cpds (ERRγ): 2.6 % of control | Functional Assay, Cpds/Ref 5182 (ERRγ): 0.89

CCN1CCN(c2ccc(/C(=C(/CCCO)c3ccccc3)c3ccc(O)cc3)cc2)CC1 [Compound 18i]
Functional Assay, Cpds/Ref 5182 (ERRγ): 0.97

OCCC/C(=C(\c1ccc(O)cc1)c1ccc(C2CCN(C3CC3)CC2)cc1)c1ccccc1 [Compound 22i]
MS (Microsomal Stability) (%) human [1]: 36.0%

OCCC/C(=C(\c1ccc(O)cc1)c1ccc(C2CN(C3CC3)C2)cc1)c1ccccc1 [Compound 22d]
Functional Assay, Cpds/Ref 5182 (ERRγ): 0.62 | CYP inhibition (% of control) 1A2 (CYP1A2): >100 % of control | CYP inhibition (% of control) 2C9 (CYP2C9): >100 % of control | CYP inhibition (% of control) 2C19 (CYP2C19): >100 % of control

CN1CCN(c2ccc(/C(=C(/CCCO)c3ccccc3)c3ccc([N+](=O)[O-])cc3)cc2)CC1 [Compound 18c]
Functional Assay, Cpds/Ref 5182 (ERRγ): 0.42 | CYP inhibition (% of control) 2C19 (CYP2C19): 80 % of control

CN1CCC[C@H]1CCOc1ccc(/C(=C(/CCCO)c2ccccc2)c2ccc(O)cc2)cc1 [Compound 6j]
Functional Assay, Cpds/Ref 5182 (ERRγ): 0.77 | CYP inhibition (% of control) 1A2 (CYP1A2): 98.7 % of control | CYP inhibition (% of control) 2C9 (CYP2C9): 85.6 % of control | CYP inhibition (% of control) 2C19 (CYP2C19): 89.1 % of control | CYP inhibition (% of control) 2D6 (CYP2D6): 85.2 % of control | CYP inhibition (% of control) 3A4 (CYP3A4): 74.6 % of control

CC(C)(C)OC(=O)N1CC(c2ccc(/C(=C(/CCCO)c3ccccc3)c3ccc(O)cc3)cc2)C1 [Compound 18t, tert-butyl (E)-3-(4-(5-hydroxy-1-(4-hydroxyphenyl)-2-phenylpent-1-en-1-yl)phenyl)azetidine-1-carboxylate]
CYP inhibition (% of control) 1A2 (CYP1A2): 100 % of control | CYP inhibition (% of control) 2C9 (CYP2C9): 83 % of control | CYP inhibition (% of control) 2C19 (CYP2C19): 93 % of control | CYP inhibition (% of control) 2D6 (CYP2D6): 98 % of control | CYP inhibition (% of control) 3A4 (CYP3A4): 106 % of control

OCCC/C(=C(\c1ccc(O)cc1)c1ccc(OCCN2CCCC2)cc1)c1ccccc1 [Compound 6e]
CYP inhibition (% of control) 1A2 (CYP1A2): 79.6 % of control | CYP inhibition (% of control) 2C9 (CYP2C9): 51.6 % of control | CYP inhibition (% of control) 2C19 (CYP2C19): 64.1 % of control | CYP inhibition (% of control) 2D6 (CYP2D6): 80.6 % of control | CYP inhibition (% of control) 3A4 (CYP3A4): 68.1 % of control

OCCC/C(=C(\c1ccc(O)cc1)c1ccc(OCCN2CCC3(CCNC3)C2)cc1)c1ccccc1 (centres unmarked) [Compound 39, (Z)-4-(1-(4-(2-(2,7-diazaspiro[4.4]nonan-2-yl)ethoxy)phenyl)-5-hydroxy-2-phenylpent-1-en-1-yl)phenol]
CYP inhibition (% of control) 1A2 (CYP1A2): 82.5 % of control | CYP inhibition (% of control) 2C9 (CYP2C9): 74.4 % of control | CYP inhibition (% of control) 2C19 (CYP2C19): 73.9 % of control | CYP inhibition (% of control) 2D6 (CYP2D6): 67.8 % of control | CYP inhibition (% of control) 3A4 (CYP3A4): 59 % of control

Cc1ccc(/C(=C(\CCCO)c2ccccc2)c2ccc(N3CCN(C)CC3)cc2)cc1 [Compound 18f]
Functional Assay, Cpds/Ref 5182 (ERRγ): 0.82 | CYP inhibition (% of control) 1A2 (CYP1A2): >100 % of control

Cc1ccc(/C(=C(\CCCO)c2ccccc2)c2ccc(C3CN(C(C)C)C3)cc2)cc1 [Compound 22e]
Functional Assay, Cpds/Ref 5182 (ERRγ): 0.61

CN1CCCC1CCOc1ccc(/C(=C(/CCCO)c2ccccc2)c2ccc(Br)cc2)cc1 (centres unmarked) [Compound 13d]
CYP inhibition (% of control) 1A2 (CYP1A2): >100 % of control | CYP inhibition (% of control) 2C9 (CYP2C9): 97 % of control | CYP inhibition (% of control) 2C19 (CYP2C19): 89.4 % of control | CYP inhibition (% of control) 2D6 (CYP2D6): >100 % of control | CYP inhibition (% of control) 3A4 (CYP3A4): 90.2 % of control

CC(C)N1CCN(c2ccc(/C(=C(/CCCO)c3ccccc3)c3ccc(Br)cc3)cc2)CC1 [Compound 18h]
MS (Microsomal Stability) (%) human [1]: >100%

CN1CCN(c2ccc(/C(=C(/CCCOC(=O)C(C)(C)C)c3ccccc3)c3ccc(OC(=O)C(C)(C)C)cc3)cc2)CC1 [Compound 28g]
Functional Assay at 10 μM (% of control), Cpds (ERRγ): 5.1 % of control

CN1CCN(c2ccc(/C(=C(/CCCO)c3ccccc3)c3ccc(O)cc3)cc2)CC1 [Compound 18d]
Functional Assay, Cpds/Ref 5182 (ERRγ): 0.97 | CYP inhibition (% of control) 1A2 (CYP1A2): 88 % of control | CYP inhibition (% of control) 3A4 (CYP3A4): 64 % of control

CN1CCC[C@@H]1COc1ccc(/C(=C(/CCCO)c2ccccc2)c2ccc(O)cc2)cc1 [Compound 6i]
CYP inhibition (% of control) 1A2 (CYP1A2): 98.1 % of control | CYP inhibition (% of control) 2C9 (CYP2C9): 86.7 % of control | CYP inhibition (% of control) 2C19 (CYP2C19): 82.6 % of control | CYP inhibition (% of control) 2D6 (CYP2D6): 93.6 % of control | CYP inhibition (% of control) 3A4 (CYP3A4): 79.4 % of control

CN1CCCC1CCOc1ccc(/C(=C(/CCCO)c2ccccc2)c2ccc(O)cc2)cc1 (centres unmarked) [Compound 6g]
Functional Assay, Cpds/Ref 5182 (ERRγ): 1.60 | CYP inhibition (% of control) 1A2 (CYP1A2): 97.8 % of control | CYP inhibition (% of control) 2C9 (CYP2C9): 75.4 % of control | CYP inhibition (% of control) 2C19 (CYP2C19): 81.8 % of control | CYP inhibition (% of control) 2D6 (CYP2D6): 81.7 % of control | CYP inhibition (% of control) 3A4 (CYP3A4): 83.7 % of control

CCN1CCC(c2ccc(C(=C(CCCO)c3ccccc3)c3cccc(O)c3)cc2)CC1 [Compound 22ae]
CYP inhibition (% of control) 2C9 (CYP2C9): >100 % of control | CYP inhibition (% of control) 2C19 (CYP2C19): >100 % of control

CC(C)N1CCN(c2ccc(/C(=C(/CCCO)c3ccccc3)c3ccc([N+](=O)[O-])cc3)cc2)CC1 [Compound 18g]
Functional Assay, Cpds/Ref 5182 (ERRγ): 0.84

OCCC/C(=C(\c1ccc(O)cc1)c1ccc(N2CCN(C3CCC3)CC2)cc1)c1ccccc1 [Compound 22q]
CYP inhibition (% of control) 3A4 (CYP3A4): 81 % of control

CC(C)N1CCN(c2ccc(/C(=C(/CCCO)c3ccccc3)c3ccc(OS(C)(=O)=O)cc3)cc2)CC1 [Compound 28a, (E)-4-(5-hydroxy-1-(4-(4-isopropylpiperazin-1-yl)phenyl)-2-phenylpent-1-en-1-yl)phenyl methanesulfonate]
Functional Assay, Cpds/Ref 5182 (ERRγ): 1.20

OCCC/C(=C(/c1ccc(C2=CCN(C3CC3)CC2)cc1)c1cccc(O)c1)c1ccccc1 [Compound 22l]
CYP inhibition (% of control) 2C19 (CYP2C19): 97 % of control | CYP inhibition (% of control) 2D6 (CYP2D6): 99 % of control

OCCC/C(=C(\c1ccc(Br)cc1)c1ccc(N2CCNCC2)cc1)c1ccccc1 [Compound 20a, (E)-5-(4-bromophenyl)-4-phenyl-5-(4-(piperazin-1-yl)phenyl)pent-4-en-1-ol]
CYP inhibition (% of control) 1A2 (CYP1A2): 85 % of control | CYP inhibition (% of control) 2C9 (CYP2C9): 76 % of control | CYP inhibition (% of control) 2C19 (CYP2C19): 61.9 % of control | CYP inhibition (% of control) 2D6 (CYP2D6): 70.7 % of control | CYP inhibition (% of control) 3A4 (CYP3A4): 55 % of control

CC(C)N1CCC(c2ccc(/C(=C(/CCCO)c3ccccc3)c3ccc(N)cc3)cc2)CC1 [Compound 26c]
Functional Assay, Cpds/Ref 5182 (ERRγ): 4.80

CN1CCN(c2ccc(/C(=C(/CCCO)c3ccccc3)c3ccc(N)cc3)cc2)CC1 [Compound 26a, (Z)-5-(4-aminophenyl)-5-(4-(4-methylpiperazin-1-yl)phenyl)-4-phenylpent-4-en-1-ol]
Functional Assay, Cpds/Ref 5182 (ERRγ): 0.84 | CYP inhibition (% of control) 1A2 (CYP1A2): >100 % of control | CYP inhibition (% of control) 2C9 (CYP2C9): 53.2 % of control | CYP inhibition (% of control) 2C19 (CYP2C19): 89 % of control | CYP inhibition (% of control) 2D6 (CYP2D6): 85.5 % of control | CYP inhibition (% of control) 3A4 (CYP3A4): 75.4 % of control

CN1CCC[C@@H]1CCOc1ccc(/C(=C(/CCCO)c2ccccc2)c2ccc(O)cc2)cc1 [Compound 6k]
Functional Assay, Cpds/Ref 5182 (ERRγ): 0.79

OCCC/C(=C(\c1ccc(O)cc1)c1ccc(OCCN2CCOCC2)cc1)c1ccccc1 [Compound 6c]
CYP inhibition (% of control) 1A2 (CYP1A2): 91.9 % of control | CYP inhibition (% of control) 2C9 (CYP2C9): 77.9 % of control | CYP inhibition (% of control) 2C19 (CYP2C19): 81.6 % of control | CYP inhibition (% of control) 2D6 (CYP2D6): 96.4 % of control | CYP inhibition (% of control) 3A4 (CYP3A4): 81.3 % of control

OCCC/C(=C(\c1ccc(O)cc1)c1ccc(N2CCNCC2)cc1)c1ccccc1 [Compound 20c]
Functional Assay, Cpds/Ref 5182 (ERRγ): 0.93

CC(C)(C)OC(=O)N1CCN(c2ccc(/C(=C(/CCCO)c3ccccc3)c3ccc(Br)cc3)cc2)CC1 [Compound 18n]
Functional Assay, Cpds/Ref 5182 (ERRγ): 0.82

OCCC/C(=C(\c1ccc(O)cc1)c1ccc(OCCN2CCC[C@@H]2CO)cc1)c1ccccc1 [Compound 38c]
Functional Assay, Cpds/Ref 5182 (ERRγ): 0.99

CN1CCC(c2ccc(/C(=C(/CCCO)c3ccccc3)c3cccc(O)c3)cc2)CC1 [Compound 22ac]
CYP inhibition (% of control) 1A2 (CYP1A2): >100 % of control | CYP inhibition (% of control) 2C9 (CYP2C9): >100 % of control | CYP inhibition (% of control) 2C19 (CYP2C19): >100 % of control | CYP inhibition (% of control) 3A4 (CYP3A4): 85 % of control

O=C(CN1CCCCC1)Nc1ccc(/C(=C(/CCCO)c2ccccc2)c2ccc(O)cc2)cc1 [Compound 44, (E)-N-(4-(5-hydroxy-1-(4-hydroxyphenyl)-2-phenylpent-1-en-1-yl)phenyl)-2-(piperidin-1-yl)acetamide]
AUCINF [2]: 0.34 μMh | AUCall [2]: 0.28 μMh | Cl(observed)/F [2]: 139 mL/min/kg | Vss [2]: 52.8 L/kg | t1/2 [2]: 4.4 h

CN1CCN(c2ccc(/C(=C(/CCCOC(=O)C(C)(C)C)c3ccccc3)c3ccc(O)cc3)cc2)CC1 [Compound 28f]
Functional Assay at 10 μM (% of control), Cpds (ERRγ): 4 % of control | Functional Assay, Cpds/Ref 5182 (ERRγ): 0.98

OCCC/C(=C(\c1ccc(O)cc1)c1ccc(C2=CCN(C3CC3)CC2)cc1)c1ccccc1 [Compound 22j]
CYP inhibition (% of control) 2C9 (CYP2C9): 88 % of control | CYP inhibition (% of control) 3A4 (CYP3A4): 85 % of control

CC(C)N1CCC(c2ccc(/C(=C(/CCCO)c3ccccc3)c3cccc(O)c3)cc2)CC1 [Compound 22h]
CYP inhibition (% of control) 1A2 (CYP1A2): >100 % of control | CYP inhibition (% of control) 2C19 (CYP2C19): >100 % of control
